Assay: in vitro
Settings: human, hela cells

Compound	viability at 28.5 h, 10 µM [%]
CN(C)C(=O)OCCn1c(=O)oc2cc(Cl)ccc21 [CBK306455]	81.9

Same assay, conditions: human, hela cells, % viability

Compound	viability at 28.5 h, 10 µM [%]
Cc1ccc(C(=O)NC[C@H]2O[C@@H](CC(=O)N3CCOCC3)[C@H](O)[C@@H]2O)cc1 [CBK288925]	85.5
Cc1cc(COc2nccnc2N2CCN(CC3CCCCC3)CC2)no1 [CBK084205]	94.2
Cc1ccc(S(=O)(=O)N2CCCCC2CO)cc1 (centres unmarked) [CBK051142]	114
CC(C)NS(=O)(=O)c1ccc(OCC(=O)Nc2ccc3c(c2)OCCO3)cc1 [CBK265915]	106
COc1ccc(-c2ccc(C(=O)N(C)C)c(N3CCN(C(=O)c4ccco4)CC3)n2)cc1 [CBK106020]	86.3
COc1ccccc1C1OC(=O)C[C@@H]1C(=O)Nc1cc(C(C)(C)C)on1 (some centres unmarked) [CBK021439]	110
Cc1ccc2c(c1)c(C)c(C(=O)NCCn1ccc(C)n1)n2C [CBK282609]	106
O=C(Cn1nc2n(c1=O)CCCCC2)NCC(O)c1ccc(F)cc1 (centres unmarked) [CBK305187]	95.6
CC(C)[C@H](CO)n1c(=O)[nH]c2ncc(-c3ccc(OC(F)(F)F)cc3)nc21 [CBK065037]	105
O=C(N[C@@H](Cn1cc(F)c(=O)[nH]c1=O)C(=O)O)C1CCCCC1 [CBK289661]	89.2
Cc1c(O)cccc1Nc1cc(-c2cccc(N(C)C)c2)ncn1 [CBK036995]	94.3
O=C(NCC(c1ccccc1)N1CCOCC1)c1cnc(-c2ccc(F)cc2)c(-c2ccco2)c1 (centres unmarked) [CBK037531]	95.7
COc1ccc([C@H]2CN(C(=O)c3ccccc3)[C@@H]3CCN(Cc4cccc(F)c4)C[C@H]23)cc1 [CBK285584]	98.9
COc1ccc(CCNC(=O)c2n[nH]c(=O)c3ccccc23)cc1OC [CBK270160]	87.6
COc1ccc(CCNC(=O)N(C)C2CCN(C)C2)cc1OC (centres unmarked) [CBK156007]	97.9
O=C(N/N=C/c1ccc(C(=O)O)cc1)C(=O)Nc1cccc(Br)c1 [CBK262185]	88.6
O=C(CS(=O)(=O)Cc1ccccc1)Nc1ccc(S(=O)(=O)N2CCCCCC2)cc1 [CBK266653]	98.8
Cc1nc(C)c(C(=O)N2CC(C(=O)N3CCN(c4ccccc4)CC3)C2)s1 [CBK285666]	93.4
CCCOc1ccc(C2(CCCCN3CCCC3)C(=O)Oc3ccc(C(C)(C)C)cc32)cc1 (centres unmarked) [CBK017655C]	99.1
Cc1nnc(SCCOc2ccc(Cl)c(C)c2)s1 [CBK026160]	89.9

Compound	viability at 28.5 h, 10 µM [%]
CN(C)S(=O)(=O)N(CC(=O)N1CCN(Cc2ccccc2)CC1)c1ccccc1 [CBK268423]	112
CCOC(=O)C1CCCN(C(=O)Cn2ccc3sccc3c2=O)C1 (centres unmarked) [CBK304099]	100
Cc1cccnc1NC(=S)NC(=O)c1ccc([N+](=O)[O-])cc1 [CBK263931]	92.9
CC(=O)N1CCc2sccc2C1c1ccc(NC(=O)C2CC2)cc1 (centres unmarked) [CBK282907]	87.8
O=C(/C=C/c1ccco1)Nc1sc2c(c1C(=O)NCc1ccco1)CCC2 [CBK265616]	104
COc1ccccc1NC(=O)CN(c1ccc(Br)cc1)S(C)(=O)=O [CBK265254]	99.3
O=C(Cc1c[nH]c2ccccc12)N1Cc2ccccc2C1 [CBK200321]	103
Cc1noc(C)c1CN1CCC(C(O)c2ccccc2)CC1 (centres unmarked) [CBK305783]	93.9
CCc1ccc(CNC(=O)Cn2nnc(-c3ccc(CNCCc4ccc(OC)c(OC)c4)cc3)n2)cc1 [CBK155008T]	77.2
COc1ccc(NS(=O)(=O)c2ccc(Cl)c(C(=O)Nc3ccccc3C(=O)O)c2)cc1 [CBK263209]	104
Clc1cncc(OC(c2ccccc2)C2CC2)n1 (centres unmarked) [CBK176042]	78
CNS(=O)(=O)c1ccc2c(c1)CCN2C(=O)C1C2CCCCC21 (centres unmarked) [CBK281521]	100
O=C(NC1CCS(=O)(=O)C1)c1cc2ccc(OC(F)(F)F)cc2[nH]1 (centres unmarked) [CBK305754]	92.4
NC(=O)c1c(F)cccc1-c1cc(NCCO)nc2[nH]ccc12 [CBK306689]	112
C=CCNc1nccnc1-c1cc(OC)c(OC)c(OC)c1 [CBK036872]	102
CC(C)Cn1cnc(S(=O)(=O)N2CCC(OCc3ccncc3)C2)c1 (centres unmarked) [CBK305456]	105
Cc1cccnc1NS(=O)(=O)c1cccs1 [CBK299775]	80.6
COc1ccc(CCN(Cc2ccc(Cl)c(Cl)c2)C(=O)NCc2ccc(C#N)cc2)cc1OC [CBK158771]	100
Cc1cc(C(=O)N2CCN(C(=O)c3cn(Cc4ccc(S(C)(=O)=O)cc4)nn3)CC2)n(C)n1 [CBK160824T]	110
CC(C)n1nccc1NC(=O)CCn1ccnc1-c1ccccc1 [CBK281536]	88.3

Compound	viability at 28.5 h, 10 µM [%]
CC(C)Nc1nccnc1OCCc1c[nH]c2ccccc12 [CBK115647]	79.7
O=C(NNC(=O)c1cccnc1)c1ccc(NC(=O)c2ccco2)cc1 [CBK266792]	111
COC(=O)c1ccccc1NC(=O)CSc1nc(C)cc(C(F)(F)F)n1 [CBK268682]	89.1
CC(=O)OC(COc1cccc(Cl)c1)Cn1cnc2cc(C)c(C)cc21 (centres unmarked) [CBK266152]	86.6
Cn1cc(C(Nc2cccc(C#N)n2)[C@H]2C[C@H](O)C2)cn1 (some centres unmarked) [CBK307011]	105
CCc1nc(CN2CCOC(c3ccc(F)cc3)C2)cs1 (centres unmarked) [CBK305090]	89.7
NC(=O)C1CCN(C(=O)Cc2csc(COc3ccc(Cl)cc3)n2)CC1 [CBK304519]	81.9
CCOC(=O)c1ccc(N2CCN(C(C)=O)CC2)c(NC(=O)c2cccc(F)c2)c1 [CBK270263]	93.8
COc1cc(/C=N/NC(=O)CCNc2n[nH]c(=O)[nH]c2=O)cc(Br)c1O [CBK263494]	88.3
N#Cc1ccc(CNC2(Cc3cc(C(=O)N4CCCCC4)on3)COC2)cc1 [CBK289672]	87
COc1ccc(N2CCN(c3cc(-c4cccc5ccccc45)ncn3)CC2)cc1OC [CBK091022]	43.4
CCc1nnc(NC(=O)c2cccc(F)c2)s1 [CBK273362]	90.4
O=C(Nc1cccc(Oc2ccccc2)c1)c1ccc2[nH]ccc2c1 [CBK161728]	97.5
COCC(=O)NC[C@H]1C[C@@H]2CCN1C[C@@H]2c1cc(-c2ccccc2)nc(C)n1 [CBK289123]	89.3
O=C1CC(c2ccccc2)c2c(n3ncnc3[nH]c2=O)N1 (centres unmarked) [CBK287912]	89.4
O=C(O)CCC(=O)N1CCN(C2CCCCC2)CC1 [CBK286918]	94.1
CCOC(=O)C(NC(=O)CC)(Nc1cc(C)on1)C(F)(F)F (centres unmarked) [CBK025721]	117
Fc1ccc2[nH]c3c(c2c1)CCOC31CCN(C/C=C\c2ccccc2)CC1 [CBK040141]	70.1
CN1C[C@]2(CC[C@@H](C(=O)NC3CC3)CC2)Oc2ccccc2C1=O [CBK282610]	102

Same assay, conditions: human, hela cells, % viability, bulk resorufin, single well

Compound	viability at 28.5 h, 10 µM [%]
Cc1ccc(Cn2nc(C(=O)Nc3cc(C)on3)c3ccccc32)cc1 [CBK047844]	98.7
O=C1NC(=O)C(CCc2ccccn2)(Cc2cccc(Cl)c2Cl)C(=O)N1c1ccc(Br)cc1 (centres unmarked) [CBK266359]	94.2

Source: publication PMC12040169 (PLOS Biology, 2025)
